Measurements as given in patent publication US7169768B1, “Method of decreasing atherosclerosis and its complications” (priority 1997, dated 2007).

Assay: Retrospective questionnaire study of patient-reported cardiac events (heart attack, coronary artery bypass or angioplasty)
Type: in vivo, patients
Conditions: for Events/Year: cardiac events per subject year, patients on drug for at least one year; for Cardiac Events: number of cardiac events (history of heart attack, coronary artery bypass or angioplasty) in patients on drug for at least one year; for heart attacks compared with controls (in words): treated patients vs controls; for observed difference between the proportions vs Total Control: treated group vs Total Control (Groups 1 + 4)
Method: A retrospective study was performed which compared the rates of patient reported heart attack in several groups: 1—control group of males entering the urology office for any routine complaint. 2—a group of prostate cancer patients treated with Leuprolide acetate, a LHRH inhibitor. 3—a group of prostate cancer patients treated with Goserelin acetate (Zoladex), a LHRH inhibitor. 4—a group of prostate cancer patients not treated with hormonal manipulation (neither Leuprolide or Goserelin). 5—a group of patients treated with Finasteride (another form of hormonal manipulation). 6—all patients on LHRH inhibitors (group 2+group 3). The patients on either leuprolide acetate or goserelin acetate were treated with the recommended doses indicated for the treatment of prostatic carcinoma, at either one or three month intervals depending on the preparation used. Leuprolide was dosed at 7.5 mg monthly (single intramuscular injection) or at 22.5 mg at 3 month intervals (single intramuscular injection). Goserelin was dosed at 3.6 mg monthly (subcutaneous injection) or at a dose of 10.8 mg at 3 month intervals (subcutaneous injection). The various groups of office patients were given a questionnaire. In groups 2, 3 and 5 only those on drug for at least one year were considered. Cardiac event is defined as either the history of a heart attack or occurrence of coronary artery bypass or angioplasty. In control groups only events occurring in the 3 years prior to the questionnaire are charted.

Compound | observed difference between the proportions vs Group 1 (Control) (Group 5 vs Group 1 (control, no cancer)) | Events/Year | Cardiac Events | heart attacks compared with controls (in words) | observed difference between the proportions vs Total Control
CC(C)(C)NC(=O)[C@H]1CC[C@H]2[C@@H]3CC[C@H]4NC(=O)C=C[C@]4(C)[C@H]3CC[C@]12C [Finasteride] | 0.0186 | .0165 | 4 | fewer heart attacks than control | –
CC(C)C[C@H](NC(=O)[C@@H](COC(C)(C)C)NC(=O)[C@H](Cc1ccc(O)cc1)NC(=O)[C@H](CO)NC(=O)[C@H](Cc1c[nH]c2ccccc12)NC(=O)[C@H](Cc1cnc[nH]1)NC(=O)[C@@H]1CCC(=O)N1)C(=O)N[C@@H](CCCNC(=N)N)C(=O)N1CCC[C@H]1C(=O)NNC(N)=O [goserelin acetate, pyro-Glu-His-Trp-Ser-Tyr-D-Ser(Bu)-Leu-Arg-Pro-Azgly-NH2 acetate] | – | .0161 | 1 | fewer heart attacks than controls | 0.0177
CC(=O)O.CCNC(=O)[C@@H]1CCCN1C(=O)[C@H](CCCNC(=N)N)NC(=O)[C@H](CC(C)C)NC(=O)[C@@H](CC(C)C)NC(=O)[C@H](Cc1ccc(O)cc1)NC(=O)[C@H](CO)NC(=O)[C@H](Cc1c[nH]c2ccccc12)NC(=O)[C@H](Cc1c[nH]cn1)NC(=O)[C@@H]1CCC(=O)N1 [leuprolide acetate, 5-oxo-L-prolyl-L-histidyl-L-tryptophyl-L-seryl-L-tyrosyl-D-leucyl-L-leucyl-L-arginyl-N-ethyl-L-prolinamide acetate salt] | – | .00847 | 1 | fewer heart attacks than controls | 0.0253
